Laboratory results: patent publication US7041698B2, “Hepatitis C virus inhibitors” (Bristol-Myers Squibb Company, priority 2002, dated 2006)

What was measured:
[1] = molecular target: T1, HCV NS3/4A protease complex (UniProt P27958, C1454S/C1711G, species not given); test: Recombinant HCV NS3/4A protease complex FRET peptide assay (strain not stated); type: biochemical; conditions: HCV NS3/4A protease enzyme assay, read-out: IC50 range
T1 construct: fused on or other part: Three-lysine solubilising tail at the C-terminus of NS4A

[2] = system: HCV replicon in Huh7 cells; test: HCV replicon cell-based assay; set-up: species or system HCV strain 1B; conditions: Hepatitis C virus, Huh-7, 96 h, HCV replicon, 4 days, read-out: EC50 range
Source text: HCV Replicon Cell-based Assay
An HCV replicon whole cell system was established as described by Lohmann V, Komer F, Koch J, Herian U, Theilmann L, Bartenschlager R., Science 285(5424):110–3 (1999). This system enabled us to evaluate the effects of our HCV Protease compounds on HCV RNA replication. Briefly, using the HCV strain 1B sequence described in the Lohmann paper (Assession number:AJ238799), an HCV cDNA was generated encoding the 5′ internal ribosome entry site (IRES), the neomycin resistance gene, the EMCV (encephalomyocarditis viurs)-IRES and the HCV nonstructural proteins, NS3-NS5B, and 3′ non-translated region (NTR). In vitro transcripts of the cDNA were transfected into the human hepatoma cell line, Huh7. […] Resulting cell lines were characterized for positive and negative strand RNA production and protein production over time.
Huh7 cells, constitutively expressing the HCV replicon, were grown in Dulbecco's Modified Eagle Media (DMEM) containing 10% Fetal calf serum (FCS) and 1 mg/ml G418 (Gibco-BRL). Cells were seeded the night before (1.5×10^4 cells/well) in 96-well tissue-culture sterile plates. Compound and no compound controls were prepared in DMEM containing 4% FCS, 1:100 Penicillin/Streptomysin, 1:100 L-glutamine and 5% DMSO in the dilution plate (0.5% DMSO final concentration in the assay). Compound/DMSO mixes were added to the cells and incubated for 4 days at 37° C. After 4 days, plates were rinsed thoroughly with Phosphate-Buffered Saline (PBS) (3 times 150 μl). The cells were lysed with 25 μl of a lysis assay reagent containing the FRET peptide (RET S1, as described for the in vitro enzyme assay). The lysis assay reagent was made from 5× cell Luciferase cell culture lysis reagent (Promega #E153A) diluted to 1× with distilled water, NaCl added to 150 mM final, the FRET peptide diluted to 10 μM final from a 2 mM stock in 100% DMSO. The plate was then placed into the Cytofluor 4000 instrument which had been set to 340 nm excitation/490 emission, automatic mode for 21 cycles and the plate read in a kinetic mode. EC50 determinations were carried out as described for the IC50 determinations.
As a secondary assay, EC50 determinations from the replicon FRET assay were confirmed in a quantitative RNA assay. Cells were lyzed using the Rneasy kit (Qiagen). Purified total RNA was normalized using RiboGreen (Jones L J, Yue S T, Cheung C Y, Singer V L, Anal. Chem., 265(2):368–74 (1998)) and relative quantitation of HCV RNA expression assessed using the Taqman procedure (Kolykhalov A A, Mihalik K, Feinstone S M, Rice C M, Journal of Virology 74, 2046–2051 (2000)) and the Platinum Quantitative RT-PCR Thermoscript One-Step kit (Invitrogen cat # 11731-015). Briefly, RNA made to a volume of 5 μl (<1 ng) was added to a 20 μl Ready-Mix containing the following: 1.25× Thermoscript reaction mix (containing Magnesium Sulfate and 2-deoxynucleoside 5′-triphosphates (dNTPs)), 3 mM dNTPs, 200 nM forward primer (sequence: 5′-[…]-3′), 600 nM reverse primer (5′-[…]-3′), 100 nM probe (5′-6-FAM-[…]-BHQ-1-3′)(FAM: Fluorescein-aminohexyl amidite; BHQ: Black Hole Quencher), 1 μM Rbx reference dye (Invitrogen cat # 12223-012) and Thermoscript Plus Platinum Taq polymerase mixture. All primers were designed with ABI Prism 7700 software and obtained from Biosearch Technologies, Novato, Calif. Samples containing known concentrations of HCV RNA transcript were run as standards. Using the following cycling protocol (50° C., 30 min; 95° C., 5 min; 40 cycles of 95° C., 15 sec, 60° C., 1 min), HCV RNA expression was quantitated as described in the Perkin Elmer manual using the ABI Prism 7700 Sequence Detector.
The luciferase reporter assay was also used to confirm compound potency in the replicon. Utilization of a replicon luciferase reporter assay was first described by Krieger et al (Krieger N, Lohmann V, and Bartenschlager R, J. Virol. 75(10):4614–4624 (2001)). […]

Row | Compound | IC50 [1] [nM] | EC50 [2] [nM]
1 | C=CC1C[C@]1(NC(=O)[C@@H]1C[C@@H](OC(=O)Nc2cccc(Cl)c2Cl)CN1C(=O)[C@@H](NC(=O)OC(C)(C)C)C(C)(C)C)C(=O)NS(=O)(=O)C1CC1 (stereo partly drawn) [Compound 31, BocNH-P3(t-BuGly)-P2(Hyp(O—CO(NH—(2,3-dichloro-phenyl))))-P1(1R,2S VinylAcca)—CONHSO2Cyclopropane] | < 100 | 100 to 1000
2 | C=CC1C[C@]1(NC(=O)[C@@H]1C[C@@H](OC(=O)N2CCc3ccccc32)CN1C(=O)[C@@H](NC(=O)OC(C)(C)C)C(C)(C)C)C(=O)NS(=O)(=O)C1CC1 (stereo partly drawn) [Compound 36, BocNH-P3(t-BuGly)-P2(Hyp(O—CO(N-(1-indolinyl))))-P1(1R,2S VinylAcca)—CONHSO2Cyclopropane] | < 100 | 100 to 1000
3 | C=C[C@@H]1C[C@]1(NC(=O)[C@@H]1C[C@@H](OC(=O)Nc2ccccc2C(=O)OCC)CN1C(=O)[C@@H](NC(=O)OC)C(C)(C)C)C(=O)NS(=O)(=O)C1CC1 [Compound 110] | < 100 | 100 to 1000
4 | C=CC1C[C@]1(NC(=O)[C@@H]1C[C@@H](OC(=O)Nc2ccccc2C(=O)OC(C)C)CN1C(=O)[C@@H](NC(=O)OC(C)(C)C)C(C)(C)C)C(=O)NS(=O)(=O)C1CC1 (stereo partly drawn) [Compound 48, BocNH-P3(t-BuGly)-P2(Hyp(O—CO(NH—(2-benzoic acid isopropyl ester))))-P1(1R,2S VinylAcca)—CONHSO2Cyclopropane] | < 100 | 100 to 1000
5 | C=CC1C[C@]1(NC(=O)[C@@H]1C[C@@H](OC(=O)NCc2ccccc2Cl)CN1C(=O)[C@@H](NC(=O)OC(C)(C)C)C(C)(C)C)C(=O)NS(=O)(=O)C1CC1 (stereo partly drawn) [Compound 26, BocNH-P3(t-BuGly)-P2(Hyp(O—CO(NH—(2-chloro-benzyl))))-P1(1R,2S VinylAcca)—CONHSO2Cyclopropane] | < 100 | 1000 to 10000
6 | C=CC1C[C@]1(NC(=O)[C@@H]1C[C@@H](OC(=O)Nc2ccccc2SC)CN1C(=O)[C@@H](NC(=O)OC(C)(C)C)C(C)(C)C)C(=O)NS(=O)(=O)C1CC1 (stereo partly drawn) [Compound 29, BocNH-P3(t-BuGly)-P2(Hyp(O—CO(NH—(2-methylsulfanyl-phenyl))))-P1(1R,2S VinylAcca)—CONHSO2Cyclopropane] | < 100 | 100 to 1000
7 | C=CC1C[C@]1(NC(=O)[C@@H]1C[C@@H](OC(=O)Nc2ccccc2F)CN1C(=O)[C@@H](NC(=O)OC(C)(C)C)C(C)(C)C)C(=O)NS(=O)(=O)C1CC1 (stereo partly drawn) [Compound 51, BocNH-P3(t-BuGly)-P2(Hyp(O—CO(NH—(2-fluoro-phenyl))))-P1(1R,2S VinylAcca)—CONHSO2Cyclopropane] | 100 to 1000 | 1000 to 10000
8 | C=CC1C[C@]1(NC(=O)[C@@H]1C[C@@H](OC(=O)Nc2cccc(CC)c2)CN1C(=O)[C@@H](NC(=O)OC(C)(C)C)C(C)(C)C)C(=O)NS(=O)(=O)C1CC1 (stereo partly drawn) [Compound 25, BocNH-P3(t-BuGly)-P2(Hyp(O—CO(NH—(3-ethyl-phenyl))))-P1(1R,2S VinylAcca)—CONHSO2Cyclopropane] | < 100 | 1000 to 10000
9 | C=CC1C[C@]1(NC(=O)[C@@H]1C[C@@H](OC(=O)Nc2ccccc2-n2cccc2)CN1C(=O)[C@@H](NC(=O)OC(C)(C)C)C(C)(C)C)C(=O)NS(=O)(=O)C1CC1 (stereo partly drawn) [Compound 86, BocNH-P3(t-BuGly)-P2(Hyp(O—CO(NH—(2-pyrrol-1-yl-phenyl))))-P1(1R,2S VinylAcca)—CONHSO2Cyclopropane] | < 100 | 100 to 1000
10 | C=CC1C[C@]1(NC(=O)[C@@H]1C[C@@H](OC(=O)Nc2ccccc2-n2cccn2)CN1C(=O)[C@@H](NC(=O)OC(C)(C)C)C(C)(C)C)C(=O)NS(=O)(=O)C1CC1 (stereo partly drawn) [Compound 89, BocNH-P3(t-BuGly)-P2(Hyp(O—CO(NH—(2-Pyrazol-1-yl-phenyl))))-P1(1R,2S VinylAcca)—CONHSO2Cyclopropane] | < 100 | 100 to 1000
11 | C=CC1C[C@]1(NC(=O)[C@@H]1C[C@@H](OC(=O)Nc2ccccc2Oc2ccccc2)CN1C(=O)[C@@H](NC(=O)OC(C)(C)C)C(C)(C)C)C(=O)NS(=O)(=O)C1CC1 (stereo partly drawn) [Compound 67, BocNH-P3(t-BuGly)-P2(Hyp(O—CO(NH—(2-phenoxy-phenyl))))-P1(1R,2S VinylAcca)—CONHSO2Cyclopropane] | < 100 | 100 to 1000
12 | C=CC1C[C@]1(NC(=O)[C@@H]1C[C@@H](OC(=O)Nc2c(C)cccc2Cl)CN1C(=O)[C@@H](NC(=O)OC(C)(C)C)C(C)(C)C)C(=O)NS(=O)(=O)C1CC1 (stereo partly drawn) [Compound 63, BocNH-P3(t-BuGly)-P2(Hyp(O—CO(NH—(2-chloro-6-methyl))))-P1(1R,2S VinylAcca)—CONHSO2Cyclopropane] | 100 to 1000 | 1000 to 10000
13 | C=CC1C[C@]1(NC(=O)[C@@H]1C[C@@H](OC(=O)Nc2ccccc2Cl)CN1C(=O)[C@@H](NC(=O)OC(C)(C)C)C(C)(C)C)C(=O)NS(=O)(=O)C1CC1 (stereo partly drawn) [Compound 53, BocNH-P3(t-BuGly)-P2(Hyp(O—CO(NH—(2-chloro-phenyl))))-P1(1R,2S VinylAcca)—CONHSO2Cyclopropane] | < 100 | 1000 to 10000
14 | C=CC1C[C@]1(NC(=O)[C@@H]1C[C@@H](OC(=O)Nc2cc(C(F)(F)F)ccc2-n2cccc2)CN1C(=O)[C@@H](NC(=O)OC(C)(C)C)C(C)(C)C)C(=O)NS(=O)(=O)C1CC1 (some centres unmarked) [Compound 85] | < 100 | 100 to 1000
15 | C=CC1C[C@]1(NC(=O)[C@@H]1C[C@@H](OC(=O)Nc2cccc(C(F)(F)F)c2)CN1C(=O)[C@@H](NC(=O)OC(C)(C)C)C(C)(C)C)C(=O)NS(=O)(=O)C1CC1 (stereo partly drawn) [Compound 34, BocNH-P3(t-BuGly)-P2(Hyp(O—CO(NH—(3-trifluoromethyl-phenyl))))-P1(1R,2S VinylAcca)—CONHSO2Cyclopropane] | 100 to 1000 | 1000 to 10000
16 | C=CC1C[C@]1(NC(=O)[C@@H]1C[C@@H](OC(=O)Nc2cc(C)ccc2-n2cccc2)CN1C(=O)[C@@H](NC(=O)OC(C)(C)C)C(C)(C)C)C(=O)NS(=O)(=O)C1CC1 (stereo partly drawn) [Compound 83, BocNH-P3(t-BuGly)-P2(Hyp(O—CO(NH—(5-Methyl-2-pyrrol-1-yl-phenyl))))-P1(1R,2S VinylAcca)—CONHSO2Cyclopropane] | < 100 | < 100
17 | C=CC1C[C@]1(NC(=O)[C@@H]1C[C@@H](OC(=O)Nc2ccccc2C(=O)OCC)CN1C(=O)[C@@H](NC(=O)OC(C)(C)C)C(C)(C)C)C(=O)NS(=O)(=O)C1CC1 (stereo partly drawn) [Compound 19, BocNH-P3(t-BuGly)-P2(Hyp(O—CO(NH—(2-benzoic acid ethyl ester))))-P1(1R,2S VinylAcca)—CONHSO2Cyclopropane] | < 100 | < 100
18 | C=CC1C[C@]1(NC(=O)[C@@H]1C[C@@H](OC(=O)Nc2ccccc2-c2ccc(C)o2)CN1C(=O)[C@@H](NC(=O)OC(C)(C)C)C(C)(C)C)C(=O)NS(=O)(=O)C1CC1 (some centres unmarked) [Compound 81] | < 100 | < 100
19 | C=CC1C[C@]1(NC(=O)[C@@H]1C[C@@H](OC(=O)Nc2cc(Cl)ccc2OC)CN1C(=O)[C@@H](NC(=O)OC(C)(C)C)C(C)(C)C)C(=O)NS(=O)(=O)C1CC1 (stereo partly drawn) [Compound 9, BocNH-P3(t-BuGly)-P2(Hyp(O—CO(NH—(5-chloro-2-methoxy-phenyl))))-P1(1R,2S VinylAcca)—CONHSO2Cyclopropane] | < 100 | 100 to 1000
